From patent US20240150341A1, “COMPOSITION FOR PREVENTING OR TREATING DISEASES CAUSED BY MITOCHONDRIAL DYSFUNCTION, CONTAINING ISOQUINOLINE DERIVATIVE COMPOUND AS ACTIVE INGREDIENT” (ALTMEDICALCO., LTD., priority 2021, published 2024)

Assays:
[1] = test system: mitochondrial reactive oxygen species (ROS); experiment: Mitochondrial reactive oxygen species, MitoSOX assay; format: cell-based; details: CD1-012 10 μM or 15 μM, CCCP 10 μM, FIG. 6
Description: (§1) To determine if the CD1-012 synthesized in Example 1 induces mitochondrial dysfunction similar to CCCP of Comparative Example 1, the CD1-012 (10 μM or 15 μM) and the CCCP (10 μM) were treated for hours. Afterward, the mitochondrial membrane potential and the level of mitochondrial reactive oxygen species (ROS) of each sample were analyzed, and the results were represented in FIG. 6.
(§2) The mitochondrial membrane potential was analyzed using the TMRM (tetramethylrhodamine methyl ester) assay, and the mitochondrial ROS was analyzed using the MitoSOX assay.

[2] = test system: PINK1 knockdown cells (shPINK1), BEAS-2B; experiment: Mitophagy activity in PINK1 knockdown (shPINK1) BEAS-2B cells (FACS); format: cell-based, human; details: CCCP 10 μM, CD1-012 15 μM, 18 hours, FIG. 7
Description: In order to analyze whether the activation of mitophagy by the CD1-012 synthesized in Example 1 is dependent on the PINK1-Parkin pathway, the PINK 1 was knockdown using short hairpin RNA (shRNA) in BEAS-2B cell lines. Then, CCCP (10 μM) from Comparative Example 1 and the CD1-012 (15 μM) were treated for 18 hours, and the mitophagy activity of each sample was analyzed using a flow cytometry (FACS) and represented in FIG. 7.

[3] = test system: mitochondrial membrane potential; experiment: Mitochondrial membrane potential, TMRM assay; format: cell-based; details: CD1-012 10 μM or 15 μM, CCCP 10 μM, FIG. 6
Description: as §1, §2

BEAS-2B cell line [4] = experiment: Autophagy activity in BEAS-2B cells expressing Keima fluorescent protein (confocal microscope); format: cell-based, human; details: CD1-012 15 μM; compared with HBSS starvation 3 hours; FIG. 4B
Description: (§3) To confirm whether the synthesized CD1-012 in Example 1 specifically increases mitophagy activity, the CD1-012 (15 μM) of the Example 1 and the CCCP (10 μM) of Comparative Example 1 were treated to the BEAS-2B cell line expressing mt-Keima for 18 hours. Subsequently, the mitophagy activity was analyzed using a confocal microscope, and the results were represented in FIG. 4A. Moreover, the BEAS-2B cell line expressing Keima fluorescent protein was cultured in HBSS (Hanks' balanced salts solution) for 3 hours to induce a nutrient-deficient state (starvation, starv.). The autophagy activity was measured by comparing the sample treated with the CD1-012 (15 μM) for hours using a confocal microscope, and the results were represented in FIG. 4B.

[5] = test system: HeLa cervical cancer cell line (Hela-Parkin); experiment: Mitophagy activity in HeLa-Parkin cells (FACS); format: cell-based; details: FIG. 2B
Source text: (§4) To analyze the mitophagy-promoting activity effect of the isoquinoline derivative compound synthesized in the Example 1 (hereinafter, CD1-012), a quantification method for mitophagy activity, using a mt-Keima fluorescent protein, was utilized, which can measure the mitophagy activity in living cells through flow cytometry or a confocal microscope.
(§5) To determine whether CD1-012 synthesized in Example 1 enhances mitophagy activity in various cell lines, the human neuroblastoma cell line, SH-SY5Y, expressing mt-Keima fluorescent protein and HeLa cervical cancer cell line (Hela-Parkin) expressing Parkin (E3ligase) were treated with CD1-012 and CCCP of Comparative Example 1. Following this treatment, the mitophagy activity of each sample was analyzed using flow cytometry (FACS), and the results were represented in FIG. 2.
(§6) Specifically, FIG. 2A represents the analysis results for the SH-SY5Y cell line, and FIG. 2B represents the analysis results for the HeLa-Parkin cell line.

[6] = test system: SH-SY5Y overexpressing APPswd/ind protein; experiment: ATP generation level in Alzheimer's disease cell model; format: cell-based, human; details: CD1-012 20 μM, measured 48 hours later, FIG. 8
Description: To verify whether the CD1-012 synthesized in Example 1 improves mitochondrial dysfunction in the Alzheimer's disease cell model, the human neuron cell line SH-SY5Y was overexpressed with APPswd/ind protein causing Alzheimer's disease to prepare the Alzheimer's disease cell model. After treating the cell model with the CD1-012 (20 μM) for hours, the ATP generation level, an indicator of mitochondrial function, was measured 48 hours later and the results were represented in FIG. 8.

SH-SY5Y = experiment: Mitophagy activity in SH-SY5Y cells expressing mt-Keima (FACS); format: cell-based, human; details: FIG. 2A
Source text: as §4, §5, §6

BEAS-2B cell line [7] = experiment: Mitophagy activity with mt-Keima fluorescent protein in BEAS-2B cells (flow cytometry / confocal microscope); format: cell-based, human
Source text: as §4
To analyze the mitophagy-promoting activity effect of CD1-012 synthesized in Example 1, the BEAS-2B cell line, which is a human normal lung cell line, was induced to express the mt-Keima fluorescent protein. Following this, the CD1-012 (15 μM) and the compound of Comparative Example 1, CCCP (10 μM), were treated for 24 hours. After the treatment, the mitophagy activity of each sample was measured, and the results were represented in FIG. 1.
Specifically, FIG. 1A represents the analysis results using flow cytometry (FACS), FIG. 1B represents the analysis results using a confocal microscope, and FIG. 1C represents the measurement results of the quantitative changes in the mitochondria using a fluorescent protein, mito-YFP, which includes a targeting sequence to transport protein to the mitochondria.
To analyze whether CD1-012 synthesized in Example 1 promotes mitophagy activity in a concentration and time-dependent manner, the BEAS-2B cell line expressing mt-Keima was treated with varying concentrations of CD1-012 or a constant concentration (15 μM) for different durations. The mitophagy activity was then measured using flow cytometry, with the concentration-dependent mitophagy activity results represented in FIG. 3A and the time-dependent mitophagy activity results in FIG. 3B.
as §3
The mitophagy-promoting activity effect of each sample was compared, and the results were represented in FIG. 5.

APP/PS2 mice = experiment: Morris water maze test in Alzheimer's disease mouse model; format: in vivo; details: for memory capabilities, free-swimming analysis on the 7th day: intranasal, every day for 4 weeks, CD1-012 1 mg/Kg, palmatine 10 mg/Kg, FIG. 10
Description: Subsequently, to analyze the representative symptom improvement effect of Alzheimer's disease, spatial learning and memory abilities were measured through the Morris water maze test (represented in FIG. 10, 9-10 mice per group). During the behavior test, from day 1 to day 6, training was conducted, where the time taken from the start to climb the escape stand was measured 4 times. On the 7th day, free-swimming test was conducted for 60 seconds, and the time spent in the area where the escape stand was located during training was measured to analyze the learning and memory abilities of the experimental animals. The results were represented in […].
For the purpose of comparing the treatment effect of the CD1-012 synthesized in Example 1 with that of palmatine in Comparative Example 2 on an Alzheimer's disease animal model, APP/PS2 mice were intranasally administered with the CD1-012 at a concentration of 1 mg/Kg and palmatine at 10 mg/Kg every day for 4 weeks. The treatment effects on dementia were confirmed with a water maze test, and the results were represented in FIG. 10 (9-10 mice per group).

[8] = BEAS-2B mt-Keima, flow cytometry, FIG. 3A
[9] = APP/PS2 mice, 1 mg/kg every day for 4 weeks, nasal administration, FIG. 9

Structure (SMILES): N#CC(C#N)=NNc1cccc(Cl)c1 [CCCP, Carbonyl Cyanide 3-chlorophenylhydrazone, reference compound]
- mitochondrial ROS [1]: significantly increased mitochondrial ROS
- mitophagy activation in shPINK1 cells compared to the control cell line (shNT) [2]: significantly decreased
- mitochondrial membrane potential [3]: significantly reduced the mitochondrial membrane potential

Structure (SMILES): Oc1cc2c(cc1O)-c1cc3ccc(O)c(O)c3c[n+]1CC2 [CD1-012, 2,3,9,10-Tetrahydroxy-5,6-dihydroisoquinolino[3,2-a]isoquinolin-7-iumbromide]
- autophagy activity (BEAS-2B cell line [4]): did not increase autophagy activity
- mitochondrial ROS [1]: did not increase mitochondrial ROS
- mitophagy activity compared to the control group [5]: significant increase in mitophagy activity
- ATP production level [6]: recover and increase
- mitophagy activity compared to the control group (SH-SY5Y): significant increase in mitophagy activity
- mitophagy activation in shPINK1 cells compared to the control cell line (shNT) [2]: did not show any significant difference
- time from which a significant increase in mitophagy activity was observed (BEAS-2B cell line [7]; BEAS-2B mt-Keima, 15 μM, flow cytometry, FIG. 3B): 3 h
- concentration exhibiting mitophagy activity similar to the maximum of the comparators (BEAS-2B cell line [7]; BEAS-2B mt-Keima, FIG. 5): 10 µM
- concentration from which mitophagy activity began to significantly increase (BEAS-2B cell line [7]; [8]): 7.5 µM
- concentration up to which mitophagy activity continued to increase concentration-dependently (BEAS-2B cell line [7]; [8]): 17.5 µM
- mitophagy activity compared to the untreated control group (BEAS-2B cell line [7]; BEAS-2B mt-Keima, CD1-012 15 μM, 24 hours, FIG. 1): significant increase in mitophagy activity
- mitophagy activity compared with CCCP-treated sample (BEAS-2B cell line [7]; flow cytometry (FIG. 1A), CD1-012 15 μM vs CCCP 10 μM, 24 hours): increased as significantly as that of the sample treated with the representative mitophagy promoting compound, CCCP
- mitophagy-promoting activity effect, times better than berberine (BEAS-2B cell line [7]; from FIG. 5 concentrations): approximately 8 times
- mitophagy-promoting activity effect, times better than palmitate (BEAS-2B cell line [7]; from FIG. 5 concentrations): about 40 times
- concentration for similar dementia treatment effect, times lower than that of palmatine (APP/PS2 mice; 1 mg/Kg vs 10 mg/Kg palmatine): 10 times
- learning effect (escape latency) during 6 days of training (APP/PS2 mice; [9]): learning effect from day 3 to day 6
- time spent near the escape platform, free-swimming analysis on the 7th day (APP/PS2 mice; [9]): recovered close to that of normal mice
- memory capabilities, free-swimming analysis on the 7th day (APP/PS2 mice; APP/PS2 mice): improved similarly
- mitochondrial membrane potential [3]: did not observe a decrease in the mitochondrial membrane potential

Structure (SMILES): COc1ccc2cc3[n+](cc2c1OC)CCc1cc2c(cc1-3)OCO2 [berberine, Berberine, reference compound]
- concentration at which maximum mitophagy activity was reached (BEAS-2B cell line [7]; BEAS-2B mt-Keima, FIG. 5): 80 µM

Structure (SMILES): COc1cc2c(cc1OC)-c1cc3ccc(OC)c(OC)c3c[n+]1CC2 [palmatine, Palmatine, reference compound]
- concentration at which maximum mitophagy activity was reached (BEAS-2B cell line [7]; BEAS-2B mt-Keima, FIG. 5): 400 µM
- memory capabilities, free-swimming analysis on the 7th day (APP/PS2 mice; APP/PS2 mice): improved similarly
